According to US20260062422A1 (Halda Therapeutics OpCo, Inc., priority 2022, published 2026):

Molecular target: T1, androgen receptor (Homo sapiens, UniProt P10275)
T1 sequence (P10275 1-920 T878A): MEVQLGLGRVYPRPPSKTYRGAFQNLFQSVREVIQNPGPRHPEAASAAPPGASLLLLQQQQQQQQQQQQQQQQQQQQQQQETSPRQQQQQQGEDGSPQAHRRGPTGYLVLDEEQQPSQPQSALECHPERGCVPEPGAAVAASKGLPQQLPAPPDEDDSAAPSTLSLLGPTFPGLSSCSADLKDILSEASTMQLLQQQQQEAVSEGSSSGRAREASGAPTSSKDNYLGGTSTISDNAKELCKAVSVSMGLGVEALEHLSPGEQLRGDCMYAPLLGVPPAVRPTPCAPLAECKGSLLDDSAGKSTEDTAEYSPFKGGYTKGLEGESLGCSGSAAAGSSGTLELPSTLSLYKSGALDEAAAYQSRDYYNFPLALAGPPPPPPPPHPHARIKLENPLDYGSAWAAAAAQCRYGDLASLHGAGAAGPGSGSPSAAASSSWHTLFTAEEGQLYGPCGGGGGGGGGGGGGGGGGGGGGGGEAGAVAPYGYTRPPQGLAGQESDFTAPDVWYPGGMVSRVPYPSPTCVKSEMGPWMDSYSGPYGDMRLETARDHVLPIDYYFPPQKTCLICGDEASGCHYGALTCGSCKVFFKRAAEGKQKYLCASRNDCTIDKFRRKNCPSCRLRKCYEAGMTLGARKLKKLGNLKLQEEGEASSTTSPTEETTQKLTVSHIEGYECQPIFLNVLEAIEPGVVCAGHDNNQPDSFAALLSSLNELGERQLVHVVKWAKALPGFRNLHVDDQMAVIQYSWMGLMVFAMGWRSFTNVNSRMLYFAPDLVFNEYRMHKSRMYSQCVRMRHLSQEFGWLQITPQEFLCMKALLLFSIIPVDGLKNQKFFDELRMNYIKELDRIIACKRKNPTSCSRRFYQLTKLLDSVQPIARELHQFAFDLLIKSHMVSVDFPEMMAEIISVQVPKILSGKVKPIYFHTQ
Test: Assay for binding affinity to androgen receptor ([3H]methyltrienolone radioligand, cell cytosol)
Conditions: 1 nM [3H]methyltrienolone, 24 hours at 4° C., Table 5
Experimental: Fractions of cell cytosol ([…] cell/point) were incubated for 24 hours at 4° C. with 1 nM [^3H]methyltrienolone in the absence or presence of the test compound in a buffer containing 25 mM Hepes-Tris (pH 7.4), 1 mM EDTA, 10 mM Na2MoO4, 2 mM DTT, 5 μM triamcinolone acetonide, and 10% glycerol. Nonspecific binding was determined in the presence of 1 μM testosterone. Following incubation, the samples were filtered rapidly under vacuum through glass fiber filters (GF/B, Packard) presoaked with 0.3% PEI and rinsed several times with ice-cold 50 mM Tris-HCl using a 96-sample cell harvester (Unifilter, Packard). The filters were dried then counted for radioactivity in a scintillation counter (Topcount, Packard) using a scintillation cocktail (Microscint 0, Packard). The results are expressed as a percent inhibition of the control radioligand specific binding. The standard reference compound is testosterone, which is tested in each experiment at several concentrations to obtain a competition curve from which its IC50 is calculated.

Kd, < 50 nM:
CCNC(=O)C[C@@H]1N=C(c2ccc(OCC3CN(c4ncc(C(=O)N[C@H]5C(C)(C)[C@H](Oc6ccc(C#N)c(Cl)c6)C5(C)C)cn4)C3)cc2)c2c(sc(C)c2C)-n2c(C)nnc21 [Compound I-71]
CCNC(=O)C[C@@H]1N=C(c2ccc(N3CC(N(C)C4CN(c5ncc(C(=O)N[C@H]6C(C)(C)[C@H](Oc7ccc(C#N)c(Cl)c7)C6(C)C)cn5)C4)C3)cc2)c2c(sc(C)c2C)-n2c(C)nnc21 [Compound I-121]
Cc1sc2c(c1C)C(c1ccc(CC3CC4(CCN(c5ncc(C(=O)N[C@H]6C(C)(C)[C@H](Oc7ccc(C#N)c(Cl)c7)C6(C)C)cn5)CC4)C3)cc1)=N[C@@H](C)c1nnc(C)n1-2 [Compound I-303]
CCNC(=O)C[C@@H]1N=C(c2ccc(N3CCC(OC4CCN(c5ncc(C(=O)N[C@H]6C(C)(C)[C@H](Oc7ccc(C#N)c(Cl)c7)C6(C)C)cn5)CC4)CC3)cc2)c2c(sc(C)c2C)-n2c(C)nnc21 [Compound I-114]
CCNC(=O)C[C@@H]1N=C(c2cccc(OCCOC3CCN(c4ncc(C(=O)N[C@H]5C(C)(C)[C@H](Oc6ccc(C#N)c(Cl)c6)C5(C)C)cn4)CC3)c2)c2c(sc(C)c2C)-n2c(C)nnc21 [Compound I-46, N-((1r,3r)-3-(3-chloro-4-cyanophenoxy)-2,2,4,4-tetramethylcyclobutyl)-2-(4-(2-(3-((S)-6-(2-(ethylamino)-2-oxoethyl)-2,3,9-trimethyl-6H-thieno[3,2-f][1,2,4]triazolo[4,3-a][1,4]diazepin-4-yl)phenoxy)ethoxy)piperidin-1-yl)pyrimidine-5-carboxamide]
Cc1sc2c(c1C)C(c1cccc(OCCOC3CCN(c4ncc(C(=O)N[C@H]5C(C)(C)[C@H](Oc6ccc(C#N)c(Cl)c6)C5(C)C)cn4)CC3)c1)=N[C@@H](CC(=O)O)c1nnc(C)n1-2 [Compound I-41]
Cc1sc2c(c1C)C(c1cccc(OCCOCCOC3CCN(c4ncc(C(=O)N[C@H]5C(C)(C)[C@H](Oc6ccc(C#N)c(Cl)c6)C5(C)C)cn4)CC3)c1)=N[C@@H](CC(=O)O)c1nnc(C)n1-2 [Compound I-42]
CCNC(=O)C[C@@H]1N=C(c2ccc(OCCOCCOC3CCN(c4ncc(C(=O)N[C@H]5C(C)(C)[C@H](Oc6ccc(C#N)c(Cl)c6)C5(C)C)cn4)CC3)cc2)c2c(sc(C)c2C)-n2c(C)nnc21 [Compound I-44]
CCNC(=O)C[C@@H]1N=C(c2ccc(OCCOCCOCCOC3CCN(c4ncc(C(=O)N[C@H]5C(C)(C)[C@H](Oc6ccc(C#N)c(Cl)c6)C5(C)C)cn4)CC3)cc2)c2c(sc(C)c2C)-n2c(C)nnc21 [Compound I-45, N-((1r,3r)-3-(3-chloro-4-cyanophenoxy)-2,2,4,4-tetramethylcyclobutyl)-2-(4-(2-(2-(2-(4-((S)-6-(2-(ethylamino)-2-oxoethyl)-2,3,9-trimethyl-6H-thieno[3,2-f][1,2,4]triazolo[4,3-a][1,4]diazepin-4-yl)phenoxy)ethoxy)ethoxy)ethoxy)piperidin-1-yl)pyrimidine-5-carboxamide]
Cc1sc2c(c1C)C(c1ccc(OC3CC4(C3)CC3(CCN(c5ncc(C(=O)N[C@H]6C(C)(C)[C@H](Oc7ccc(C#N)c(Cl)c7)C6(C)C)cn5)CC3)C4)cc1)=N[C@@H](Cc1ncco1)c1nnc(C)n1-2 [Compound I-283]
CCNC(=O)C[C@@H]1N=C(c2ccc(OCCCCc3ncc(C(=O)N[C@H]4C(C)(C)[C@H](Oc5ccc(C#N)c(Cl)c5)C4(C)C)cn3)cc2)c2c(sc(C)c2C)-n2c(C)nnc21 [Compound I-86]
Cc1sc2c(c1C)C(c1ccc(Cl)cc1)=N[C@@H](CC(=O)NCCN(C)c1ncc(C(=O)N[C@H]3C(C)(C)[C@H](Oc4ccc(C#N)c(Cl)c4)C3(C)C)cn1)c1nnc(C)n1-2 [Compound I-1, N-[3-(3-chloro-4-cyano-phenoxy)-2,2,4,4-tetramethyl-cyclobutyl]-2-[2-[[2-[(9S)-7-(4-chlorophenyl)-4,5,13-trimethyl-3-thia-1,8,11,12-tetrazatricyclo[8.3.0.02,6]trideca-2(6),4,7,10,12-pentaen-9-yl]acetyl]amino]ethyl-methyl-amino]pyrimidine-5-carboxamide]
Cc1sc2c(c1C)C(c1ccc(Cl)cc1)=N[C@@H](CC(=O)NCCOCCOCCOCC1CN(c3ncc(C(=O)N[C@H]4C(C)(C)[C@H](Oc5ccc(C#N)c(Cl)c5)C4(C)C)cn3)C1)c1nnc(C)n1-2 [Compound I-18]
Cc1sc2c(c1C)C(c1ccc(Cl)cc1)=N[C@@H](CC(=O)NCCCCOCCOC1CCN(c3ncc(C(=O)N[C@H]4C(C)(C)[C@H](Oc5ccc(C#N)c(Cl)c5)C4(C)C)cn3)CC1)c1nnc(C)n1-2 [Compound I-28]
Cc1sc2c(c1C)C(c1ccc(OCCOCCOC3CCN(c4ncc(C(=O)N[C@H]5C(C)(C)[C@H](Oc6ccc(C#N)c(Cl)c6)C5(C)C)cn4)CC3)cc1)=N[C@@H](CC(=O)O)c1nnc(C)n1-2 [Compound I-39]
Cc1sc2c(c1C)C(c1ccc(Cl)cc1)=N[C@@H](CC(=O)NCCCN1CCN(CC3CCN(c4ncc(C(=O)N[C@H]5C(C)(C)[C@H](Oc6ccc(C#N)c(Cl)c6)C5(C)C)cn4)CC3)CC1)c1nnc(C)n1-2 [Compound I-36, N-((1r,3r)-3-(3-chloro-4-cyanophenoxy)-2,2,4,4-tetramethylcyclobutyl)-2-(4-((4-(3-(2-((S)-4-(4-chlorophenyl)-2,3,9-trimethyl-6H-thieno[3,2-f][1,2,4]triazolo[4,3-a][1,4]diazepin-6-yl)acetamido)propyl)piperazin-1-yl)methyl)piperidin-1-yl)pyrimidine-5-carboxamide]
CCNC(=O)C[C@@H]1N=C(c2ccc(N3CCN(CC4CCN(c5ncc(C(=O)N[C@H]6C(C)(C)[C@H](Oc7ccc(C#N)c(Cl)c7)C6(C)C)cn5)CC4)CC3)cc2)c2c(sc(C)c2C)-n2c(C)nnc21 [Compound I-105, N-[3-(3-chloro-4-cyano-phenoxy)-2,2,4,4-tetramethyl-cyclobutyl]-2-[4-[[4-[4-[(9S)-9-[2-(ethylamino)-2-oxo-ethyl]-4,5,13-trimethyl-3-thia-1,8,11,12-tetrazatricyclo[8.3.0.02,6]trideca-2(6),4,7,10,12-pentaen-7-yl]phenyl]piperazin-1-yl]methyl]-1-piperidyl]pyrimidine-5-carboxamide]
Cc1sc2c(c1C)C(c1ccc(Cl)cc1)=N[C@@H](CC(=O)NCCOCCOCCOC1CCN(c3ncc(C(=O)N[C@H]4C(C)(C)[C@H](Oc5ccc(C#N)c(Cl)c5)C4(C)C)cn3)CC1)c1nnc(C)n1-2 [Compound I-7]
Cc1sc2c(c1C)C(c1ccc(Cl)cc1)=N[C@H](CC(=O)NCCOCCOCCOCCOCCOCCOCCOC1CCN(c3ncc(C(=O)N[C@H]4C(C)(C)[C@H](Oc5ccc(C#N)c(Cl)c5)C4(C)C)cn3)CC1)c1nnc(C)n1-2 [Compound I-9]
CCNC(=O)C[C@@H]1N=C(c2ccc(OCCCC#Cc3ncc(C(=O)N[C@H]4C(C)(C)[C@H](Oc5ccc(C#N)c(Cl)c5)C4(C)C)cn3)cc2)c2c(sc(C)c2C)-n2c(C)nnc21 [Compound I-83]
Cc1sc2c(c1C)C(c1ccc(Cl)cc1)=N[C@@H](CC(=O)NCCCCCCCOC1CCN(c3ncc(C(=O)N[C@H]4C(C)(C)[C@H](Oc5ccc(C#N)c(Cl)c5)C4(C)C)cn3)CC1)c1nnc(C)n1-2 [Compound I-24]
Cc1sc2c(c1C)C(c1ccc(Cl)cc1)=N[C@@H](CC(=O)NCCCN1CCN(CCCN(C)c3ncc(C(=O)N[C@H]4C(C)(C)[C@H](Oc5ccc(C#N)c(Cl)c5)C4(C)C)cn3)CC1)c1nnc(C)n1-2 [Compound I-5, N-((1r,3r)-3-(3-chloro-4-cyanophenoxy)-2,2,4,4-tetramethylcyclobutyl)-2-((3-(4-(3-(2-((S)-4-(4-chlorophenyl)-2,3,9-trimethyl-6H-thieno[3,2-f][1,2,4]triazolo[4,3-a][1,4]diazepin-6-yl)acetamido)propyl)piperazin-1-yl)propyl)(methyl)amino)pyrimidine-5-carboxamide]
CCNC(=O)C[C@@H]1N=C(c2ccc(OCCCN(C)c3ncc(C(=O)N[C@H]4C(C)(C)[C@H](Oc5ccc(C#N)c(Cl)c5)C4(C)C)cn3)cc2)c2c(sc(C)c2C)-n2c(C)nnc21 [Compound I-81]
